Each compound was assayed against EGFR wild type (EGFR WT) (Homo sapiens (Human), UniProt P00533) (assay: Cellular phosphorylation assay, EGF-stimulated EGFR phosphorylation in engineered NIH 3T3 cells, Phospho-EGFR DuoSet IC ELISA, Assay 5). Settings: not given.
Type: cell-based
Method in brief: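 NIH 3T3 cells expressing EGFR WT (20,000/well, attached overnight) were exposed to serially diluted compound for 1 h at 37 °C, then stimulated with 100 ng/ml rEGF for 10 min. Phospho-EGFR in lysates measured by sandwich ELISA optical density; IC50 from curves.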

EGFR wild type (EGFR WT), sequence (P00533 25-1210): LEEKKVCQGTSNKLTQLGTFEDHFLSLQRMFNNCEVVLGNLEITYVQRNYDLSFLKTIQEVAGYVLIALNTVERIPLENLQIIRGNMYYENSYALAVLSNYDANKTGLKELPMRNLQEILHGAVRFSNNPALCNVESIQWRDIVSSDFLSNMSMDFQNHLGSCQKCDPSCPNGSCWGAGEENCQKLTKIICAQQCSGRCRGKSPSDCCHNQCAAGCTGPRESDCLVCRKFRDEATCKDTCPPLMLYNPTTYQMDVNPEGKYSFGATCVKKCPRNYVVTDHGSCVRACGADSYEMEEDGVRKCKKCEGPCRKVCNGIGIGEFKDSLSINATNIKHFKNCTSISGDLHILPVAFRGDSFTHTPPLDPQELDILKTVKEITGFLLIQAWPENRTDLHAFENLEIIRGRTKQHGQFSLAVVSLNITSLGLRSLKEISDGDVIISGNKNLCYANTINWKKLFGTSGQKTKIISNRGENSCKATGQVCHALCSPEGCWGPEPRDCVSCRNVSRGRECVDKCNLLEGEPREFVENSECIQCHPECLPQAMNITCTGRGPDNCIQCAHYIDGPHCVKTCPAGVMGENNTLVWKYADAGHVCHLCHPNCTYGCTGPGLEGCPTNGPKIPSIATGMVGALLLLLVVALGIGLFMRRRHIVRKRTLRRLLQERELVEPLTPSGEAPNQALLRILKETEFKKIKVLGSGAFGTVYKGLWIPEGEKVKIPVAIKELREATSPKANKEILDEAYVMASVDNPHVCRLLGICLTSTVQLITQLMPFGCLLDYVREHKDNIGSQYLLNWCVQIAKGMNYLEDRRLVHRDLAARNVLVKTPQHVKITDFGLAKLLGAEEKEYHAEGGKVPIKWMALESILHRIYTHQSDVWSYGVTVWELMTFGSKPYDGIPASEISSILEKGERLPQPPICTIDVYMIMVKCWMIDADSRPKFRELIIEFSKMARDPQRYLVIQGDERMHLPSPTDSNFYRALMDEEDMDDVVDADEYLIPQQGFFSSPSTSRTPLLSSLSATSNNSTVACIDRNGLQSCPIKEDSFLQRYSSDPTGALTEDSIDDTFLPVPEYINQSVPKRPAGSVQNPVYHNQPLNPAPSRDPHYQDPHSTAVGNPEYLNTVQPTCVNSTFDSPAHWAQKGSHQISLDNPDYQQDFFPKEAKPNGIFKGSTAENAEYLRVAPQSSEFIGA

| Structure (SMILES) | IC50 |
| --- | --- |
| Clc1cc(Nc2ncnc3cnc(N4C[C@H]5C[C@@H]4CO5)nc23)ccc1Oc1ccn2ncnc2c1 [Example 418] | ≥ 5000 nM |
| Cc1cc(Nc2ncnc3cnc(N4C5CCC4COC5)nc23)ccc1Oc1ccn2ncnc2c1 [Example 419] | ≥ 5000 nM |
| Cc1cc(Nc2ncnc3cnc(N4CCC5COCC54)nc23)ccc1Oc1ccn2ncnc2c1 (stereo not drawn) [Example 420] | ≥ 5000 nM |
| Cc1cc(Nc2ncnc3cnc(N4CCN[C@@H](C(F)(F)F)C4)nc23)ccc1Oc1ccn2ncnc2c1 [Example 421] | ≥ 5000 nM |
| Cc1cc(Nc2ncnc3cnc(N4CC[C@@H]4C(C)(C)O)nc23)ccc1Oc1ccn2ncnc2c1 [Example 423] | ≥ 5000 nM |
| CN(c1ncc2ncnc(Nc3ccc(Oc4ccn5ncnc5c4)c(Cl)c3)c2n1)C1COC1 [Example 424] | ≥ 5000 nM |
| Cc1cc(Nc2ncnc3cnc(N4CC5(CCN(C)C5=O)C4)nc23)ccc1Oc1ccc2c(c1)ncn2C [Example 425] | ≥ 5000 nM |
| Clc1cc(Nc2ncnc3cnc(N4C[C@@H]5C[C@H]4CO5)nc23)ccc1Oc1ccn2ncnc2c1 [Example 426] | ≥ 5000 nM |
| Cc1cc(Nc2ncnc3cnc(N(C)[C@@H]4CCOC4)nc23)ccc1Oc1ccn2ncnc2c1 [Example 427] | ≥ 5000 nM |
| Cc1cc(Nc2ncnc3cnc(N4CCCO4)nc23)ccc1Oc1ccn2ncnc2c1 [Example 428] | ≥ 5000 nM |
| FC(F)(F)[C@H]1CN(c2ncc3ncnc(Nc4ccc(Oc5ccn6ncnc6c5)c(Cl)c4)c3n2)CCN1 [Example 429] | ≥ 5000 nM |
| Clc1cc(Nc2ncnc3cnc(N4CCN5CCOC[C@H]5C4)nc23)ccc1Oc1ccn2ncnc2c1 [Example 430] | ≥ 5000 nM |
| Clc1cc(Nc2ncnc3cnc(N4CCN5CCOC[C@@H]5C4)nc23)ccc1Oc1ccn2ncnc2c1 [Example 431] | ≥ 5000 nM |
| Cc1cc(Nc2ncnc3cnc(N4CCC[C@@H]5COC[C@@H]54)nc23)ccc1Oc1ccc2c(c1)ncn2C [Example 432] | ≥ 5000 nM |
| O=S1(=O)CC[C@@H]2CN(c3ncc4ncnc(Nc5ccc(Oc6ccn7ncnc7c6)c(Cl)c5)c4n3)C[C@@H]21 [Example 433] | ≥ 5000 nM |

Each compound was assayed against ErbB2 with Exon 20 YVMA insertion (HER2-YVMA) (Homo sapiens (Human), UniProt P04626, INS775YVMA) (assay: Cellular phosphorylation assay, constitutive ErbB2 phosphorylation (Y1196) in engineered NIH 3T3 cells, Assay 4). Settings: not given.
Type: cell-based
Method in brief: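 Engineered NIH 3T3 cells expressing HER2-YVMA treated with compounds 1 h at 37 °C, then formaldehyde-fixed and methanol-permeabilized. pErbB2 Y1196 detected by in-cell infrared immunofluorescence, normalized to GAPDH. IC50 from the normalized curves.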

ErbB2 with Exon 20 YVMA insertion (HER2-YVMA), sequence (P04626 other isoform, or with tags, fused parts or gaps ins YVMA behind 775): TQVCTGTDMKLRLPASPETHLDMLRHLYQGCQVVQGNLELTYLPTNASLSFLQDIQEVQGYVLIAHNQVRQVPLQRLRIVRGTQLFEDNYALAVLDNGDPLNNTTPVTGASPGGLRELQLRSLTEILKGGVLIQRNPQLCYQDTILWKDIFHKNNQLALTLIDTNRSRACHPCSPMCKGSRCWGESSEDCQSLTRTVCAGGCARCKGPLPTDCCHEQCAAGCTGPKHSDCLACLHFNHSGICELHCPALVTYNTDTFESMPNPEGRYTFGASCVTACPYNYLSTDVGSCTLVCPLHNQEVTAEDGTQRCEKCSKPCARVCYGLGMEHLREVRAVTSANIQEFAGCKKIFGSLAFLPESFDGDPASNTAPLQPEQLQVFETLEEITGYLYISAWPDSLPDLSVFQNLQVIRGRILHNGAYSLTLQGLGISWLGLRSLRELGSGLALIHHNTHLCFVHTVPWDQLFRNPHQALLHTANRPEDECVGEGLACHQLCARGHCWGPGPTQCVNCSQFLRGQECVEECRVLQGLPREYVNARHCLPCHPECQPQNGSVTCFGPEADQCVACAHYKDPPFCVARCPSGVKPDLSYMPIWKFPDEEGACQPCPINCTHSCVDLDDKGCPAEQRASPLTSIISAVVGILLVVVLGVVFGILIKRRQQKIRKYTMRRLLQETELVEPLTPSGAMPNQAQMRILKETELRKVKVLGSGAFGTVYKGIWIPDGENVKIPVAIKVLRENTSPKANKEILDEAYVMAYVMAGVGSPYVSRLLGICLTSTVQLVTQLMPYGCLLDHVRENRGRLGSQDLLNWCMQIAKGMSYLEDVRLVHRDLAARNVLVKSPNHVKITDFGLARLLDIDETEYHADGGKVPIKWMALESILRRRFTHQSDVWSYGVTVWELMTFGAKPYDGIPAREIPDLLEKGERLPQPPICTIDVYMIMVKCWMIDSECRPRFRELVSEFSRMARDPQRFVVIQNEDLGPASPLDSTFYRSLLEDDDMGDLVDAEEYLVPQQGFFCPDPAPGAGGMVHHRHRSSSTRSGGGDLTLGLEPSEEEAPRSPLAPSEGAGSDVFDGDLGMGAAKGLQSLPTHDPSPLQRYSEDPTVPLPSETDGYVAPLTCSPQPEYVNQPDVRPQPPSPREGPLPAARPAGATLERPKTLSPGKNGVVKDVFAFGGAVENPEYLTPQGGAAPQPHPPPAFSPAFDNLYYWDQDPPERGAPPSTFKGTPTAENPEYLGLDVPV

| Structure (SMILES) | IC50 |
| --- | --- |
| Clc1cc(Nc2ncnc3cnc(N4C[C@H]5C[C@@H]4CO5)nc23)ccc1Oc1ccn2ncnc2c1 [Example 418] | 229 nM |
| Cc1cc(Nc2ncnc3cnc(N4C5CCC4COC5)nc23)ccc1Oc1ccn2ncnc2c1 [Example 419] | 538 nM |
| Cc1cc(Nc2ncnc3cnc(N4CCC5COCC54)nc23)ccc1Oc1ccn2ncnc2c1 (stereo not drawn) [Example 420] | 108 nM |
| Cc1cc(Nc2ncnc3cnc(N4CCN[C@@H](C(F)(F)F)C4)nc23)ccc1Oc1ccn2ncnc2c1 [Example 421] | 69.9 nM |
| Cc1cc(Nc2ncnc3cnc(N4CC[C@@H]4C(C)(C)O)nc23)ccc1Oc1ccn2ncnc2c1 [Example 423] | 1950 nM |
| CN(c1ncc2ncnc(Nc3ccc(Oc4ccn5ncnc5c4)c(Cl)c3)c2n1)C1COC1 [Example 424] | 44.9 nM |
| Cc1cc(Nc2ncnc3cnc(N4CC5(CCN(C)C5=O)C4)nc23)ccc1Oc1ccc2c(c1)ncn2C [Example 425] | 185 nM |
| Clc1cc(Nc2ncnc3cnc(N4C[C@@H]5C[C@H]4CO5)nc23)ccc1Oc1ccn2ncnc2c1 [Example 426] | 112 nM |
| Cc1cc(Nc2ncnc3cnc(N(C)[C@@H]4CCOC4)nc23)ccc1Oc1ccn2ncnc2c1 [Example 427] | 121 nM |
| Cc1cc(Nc2ncnc3cnc(N4CCCO4)nc23)ccc1Oc1ccn2ncnc2c1 [Example 428] | 317 nM |
| FC(F)(F)[C@H]1CN(c2ncc3ncnc(Nc4ccc(Oc5ccn6ncnc6c5)c(Cl)c4)c3n2)CCN1 [Example 429] | 46.6 nM |
| Clc1cc(Nc2ncnc3cnc(N4CCN5CCOC[C@H]5C4)nc23)ccc1Oc1ccn2ncnc2c1 [Example 430] | 31.9 nM |
| Clc1cc(Nc2ncnc3cnc(N4CCN5CCOC[C@@H]5C4)nc23)ccc1Oc1ccn2ncnc2c1 [Example 431] | 232 nM |
| Cc1cc(Nc2ncnc3cnc(N4CCC[C@@H]5COC[C@@H]54)nc23)ccc1Oc1ccc2c(c1)ncn2C [Example 432] | 80.2 nM |
| O=S1(=O)CC[C@@H]2CN(c3ncc4ncnc(Nc5ccc(Oc6ccn7ncnc7c6)c(Cl)c5)c4n3)C[C@@H]21 [Example 433] | 385 nM |

These compounds were tested against ErbB2 insYVMA (HER2-YVMA, SEQ ID NO: 2) (Homo sapiens, UniProt P04626, INS775YVMA/P1170A) (assay: biochemical). Settings: ErbB2 insYVMA enzyme assay; read-out: Assay 1 IC50.
ErbB2 insYVMA (HER2-YVMA, SEQ ID NO: 2), sequence (P04626 with tags, fused parts or gaps INS775YVMA/P1170A limits assumed): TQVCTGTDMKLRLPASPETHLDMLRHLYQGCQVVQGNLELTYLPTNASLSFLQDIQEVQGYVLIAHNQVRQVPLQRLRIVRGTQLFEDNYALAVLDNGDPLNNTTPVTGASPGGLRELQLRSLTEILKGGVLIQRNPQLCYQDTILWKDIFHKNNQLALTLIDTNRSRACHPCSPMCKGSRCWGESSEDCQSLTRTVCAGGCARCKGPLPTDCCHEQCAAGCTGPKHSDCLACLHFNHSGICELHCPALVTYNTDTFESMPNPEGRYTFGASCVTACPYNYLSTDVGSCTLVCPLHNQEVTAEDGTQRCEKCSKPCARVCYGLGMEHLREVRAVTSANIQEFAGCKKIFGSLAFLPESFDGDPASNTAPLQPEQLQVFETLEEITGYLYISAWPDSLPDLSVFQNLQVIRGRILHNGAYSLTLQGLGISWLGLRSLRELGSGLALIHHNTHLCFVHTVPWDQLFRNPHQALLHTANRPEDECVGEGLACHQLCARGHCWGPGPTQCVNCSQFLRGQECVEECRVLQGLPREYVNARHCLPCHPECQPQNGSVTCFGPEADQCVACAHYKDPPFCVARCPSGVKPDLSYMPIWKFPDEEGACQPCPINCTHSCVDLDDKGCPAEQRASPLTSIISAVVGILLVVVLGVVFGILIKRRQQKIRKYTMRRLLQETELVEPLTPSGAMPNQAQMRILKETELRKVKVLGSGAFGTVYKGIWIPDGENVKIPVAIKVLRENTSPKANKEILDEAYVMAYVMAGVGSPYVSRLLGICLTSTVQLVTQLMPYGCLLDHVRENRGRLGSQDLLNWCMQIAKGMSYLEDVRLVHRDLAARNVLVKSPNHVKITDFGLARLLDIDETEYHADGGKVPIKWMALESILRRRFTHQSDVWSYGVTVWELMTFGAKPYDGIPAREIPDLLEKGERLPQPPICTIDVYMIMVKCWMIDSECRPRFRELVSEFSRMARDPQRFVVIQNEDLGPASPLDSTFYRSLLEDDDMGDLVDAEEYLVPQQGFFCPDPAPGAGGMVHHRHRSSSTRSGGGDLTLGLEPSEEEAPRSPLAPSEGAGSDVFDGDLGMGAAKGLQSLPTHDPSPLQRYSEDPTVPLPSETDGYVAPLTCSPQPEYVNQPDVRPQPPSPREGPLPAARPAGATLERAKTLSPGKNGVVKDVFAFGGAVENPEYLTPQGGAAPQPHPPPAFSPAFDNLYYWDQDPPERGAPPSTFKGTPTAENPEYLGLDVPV

| Structure (SMILES) | IC50 |
| --- | --- |
| Clc1cc(Nc2ncnc3cnc(N4C[C@H]5C[C@@H]4CO5)nc23)ccc1Oc1ccn2ncnc2c1 [Example 418] | 42.8 nM |
| Cc1cc(Nc2ncnc3cnc(N4C5CCC4COC5)nc23)ccc1Oc1ccn2ncnc2c1 [Example 419] | 110 nM |
| Cc1cc(Nc2ncnc3cnc(N4CCC5COCC54)nc23)ccc1Oc1ccn2ncnc2c1 (stereo not drawn) [Example 420] | 8.2 nM |
| Cc1cc(Nc2ncnc3cnc(N4CCN[C@@H](C(F)(F)F)C4)nc23)ccc1Oc1ccn2ncnc2c1 [Example 421] | 29.3 nM |
| Cc1cc(Nc2ncnc3cnc(N4CC[C@@H]4C(C)(C)O)nc23)ccc1Oc1ccn2ncnc2c1 [Example 423] | 110 nM |
| CN(c1ncc2ncnc(Nc3ccc(Oc4ccn5ncnc5c4)c(Cl)c3)c2n1)C1COC1 [Example 424] | 16 nM |
| Cc1cc(Nc2ncnc3cnc(N4CC5(CCN(C)C5=O)C4)nc23)ccc1Oc1ccc2c(c1)ncn2C [Example 425] | 68.1 nM |
| Clc1cc(Nc2ncnc3cnc(N4C[C@@H]5C[C@H]4CO5)nc23)ccc1Oc1ccn2ncnc2c1 [Example 426] | 16.2 nM |
| Cc1cc(Nc2ncnc3cnc(N(C)[C@@H]4CCOC4)nc23)ccc1Oc1ccn2ncnc2c1 [Example 427] | 25 nM |
| Cc1cc(Nc2ncnc3cnc(N4CCCO4)nc23)ccc1Oc1ccn2ncnc2c1 [Example 428] | 55.5 nM |
| FC(F)(F)[C@H]1CN(c2ncc3ncnc(Nc4ccc(Oc5ccn6ncnc6c5)c(Cl)c4)c3n2)CCN1 [Example 429] | 11.2 nM |
| Clc1cc(Nc2ncnc3cnc(N4CCN5CCOC[C@H]5C4)nc23)ccc1Oc1ccn2ncnc2c1 [Example 430] | 8.6 nM |
| Clc1cc(Nc2ncnc3cnc(N4CCN5CCOC[C@@H]5C4)nc23)ccc1Oc1ccn2ncnc2c1 [Example 431] | 21.8 nM |
| Cc1cc(Nc2ncnc3cnc(N4CCC[C@@H]5COC[C@@H]54)nc23)ccc1Oc1ccc2c(c1)ncn2C [Example 432] | 28.8 nM |
| O=S1(=O)CC[C@@H]2CN(c3ncc4ncnc(Nc5ccc(Oc6ccn7ncnc7c6)c(Cl)c5)c4n3)C[C@@H]21 [Example 433] | 29.3 nM |

What follows are compounds tested against EGFR (Homo sapiens (Human), UniProt P00533) (assay: ErbB enzyme assay (CisBio HTRF KinEASE-TK), Assay 3). Settings: not given.
Type: biochemical
Method in brief: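 HTRF KinEASE-TK assay: kinase with 250 nM biotinylated TK-substrate and 1 mM ATP in 25 mM HEPES pH 7.4, 10 mM MgCl2, 0.01% Triton X-100, 2% DMSO, 30 min at 22 °C. Quenched with Sa-XL665/TK-Ab-Cryptate, read after 1 h. IC50 from 4-parameter fit of percent of control.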

EGFR, sequence (P00533 25-1210): as the sequence (P00533 25-1210) above

| Structure (SMILES) | IC50 |
| --- | --- |
| Clc1cc(Nc2ncnc3cnc(N4C[C@H]5C[C@@H]4CO5)nc23)ccc1Oc1ccn2ncnc2c1 [Example 418] | ≥ 10000 nM |
| Cc1cc(Nc2ncnc3cnc(N4C5CCC4COC5)nc23)ccc1Oc1ccn2ncnc2c1 [Example 419] | ≥ 10000 nM |
| Cc1cc(Nc2ncnc3cnc(N4CCC5COCC54)nc23)ccc1Oc1ccn2ncnc2c1 (stereo not drawn) [Example 420] | 1580 nM |
| Cc1cc(Nc2ncnc3cnc(N4CCN[C@@H](C(F)(F)F)C4)nc23)ccc1Oc1ccn2ncnc2c1 [Example 421] | 4940 nM |
| Cc1cc(Nc2ncnc3cnc(N4CC[C@@H]4C(C)(C)O)nc23)ccc1Oc1ccn2ncnc2c1 [Example 423] | ≥ 10000 nM |
| CN(c1ncc2ncnc(Nc3ccc(Oc4ccn5ncnc5c4)c(Cl)c3)c2n1)C1COC1 [Example 424] | 3930 nM |
| Cc1cc(Nc2ncnc3cnc(N4CC5(CCN(C)C5=O)C4)nc23)ccc1Oc1ccc2c(c1)ncn2C [Example 425] | ≥ 10000 nM |
| Clc1cc(Nc2ncnc3cnc(N4C[C@@H]5C[C@H]4CO5)nc23)ccc1Oc1ccn2ncnc2c1 [Example 426] | 4210 nM |
| Cc1cc(Nc2ncnc3cnc(N(C)[C@@H]4CCOC4)nc23)ccc1Oc1ccn2ncnc2c1 [Example 427] | 7940 nM |
| Cc1cc(Nc2ncnc3cnc(N4CCCO4)nc23)ccc1Oc1ccn2ncnc2c1 [Example 428] | ≥ 10000 nM |
| FC(F)(F)[C@H]1CN(c2ncc3ncnc(Nc4ccc(Oc5ccn6ncnc6c5)c(Cl)c4)c3n2)CCN1 [Example 429] | 3950 nM |
| Clc1cc(Nc2ncnc3cnc(N4CCN5CCOC[C@H]5C4)nc23)ccc1Oc1ccn2ncnc2c1 [Example 430] | 4030 nM |
| Clc1cc(Nc2ncnc3cnc(N4CCN5CCOC[C@@H]5C4)nc23)ccc1Oc1ccn2ncnc2c1 [Example 431] | ≥ 10000 nM |
| Cc1cc(Nc2ncnc3cnc(N4CCC[C@@H]5COC[C@@H]54)nc23)ccc1Oc1ccc2c(c1)ncn2C [Example 432] | ≥ 10000 nM |
| O=S1(=O)CC[C@@H]2CN(c3ncc4ncnc(Nc5ccc(Oc6ccn7ncnc7c6)c(Cl)c5)c4n3)C[C@@H]21 [Example 433] | ≥ 10000 nM |

What follows are compounds tested against ErbB2 WT (Homo sapiens (Human), UniProt P04626) (assay: ErbB enzyme assay (CisBio HTRF KinEASE-TK), Assay 2). Settings: not given.
Type: biochemical
Method in brief: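 ErbB2 phosphorylates 250 nM biotin-TK substrate at 1 mM ATP in 25 mM HEPES pH 7.4, 10 mM MgCl2, 0.01% Triton X-100 and 2% DMSO, for 30 min at 22 °C. Product is detected by HTRF with Sa-XL665 and TK-Ab-Cryptate. Percent of control is set by DMSO-only wells and pre-quenched wells.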

| Structure (SMILES) | IC50 |
| --- | --- |
| Clc1cc(Nc2ncnc3cnc(N4C[C@H]5C[C@@H]4CO5)nc23)ccc1Oc1ccn2ncnc2c1 [Example 418] | 103 nM |
| Cc1cc(Nc2ncnc3cnc(N4C5CCC4COC5)nc23)ccc1Oc1ccn2ncnc2c1 [Example 419] | 196 nM |
| Cc1cc(Nc2ncnc3cnc(N4CCC5COCC54)nc23)ccc1Oc1ccn2ncnc2c1 (stereo not drawn) [Example 420] | 12.9 nM |
| Cc1cc(Nc2ncnc3cnc(N4CCN[C@@H](C(F)(F)F)C4)nc23)ccc1Oc1ccn2ncnc2c1 [Example 421] | 43 nM |
| Cc1cc(Nc2ncnc3cnc(N4CC[C@@H]4C(C)(C)O)nc23)ccc1Oc1ccn2ncnc2c1 [Example 423] | 337 nM |
| CN(c1ncc2ncnc(Nc3ccc(Oc4ccn5ncnc5c4)c(Cl)c3)c2n1)C1COC1 [Example 424] | 19.4 nM |
| Cc1cc(Nc2ncnc3cnc(N4CC5(CCN(C)C5=O)C4)nc23)ccc1Oc1ccc2c(c1)ncn2C [Example 425] | 495 nM |
| Clc1cc(Nc2ncnc3cnc(N4C[C@@H]5C[C@H]4CO5)nc23)ccc1Oc1ccn2ncnc2c1 [Example 426] | 16.2 nM |
| Cc1cc(Nc2ncnc3cnc(N(C)[C@@H]4CCOC4)nc23)ccc1Oc1ccn2ncnc2c1 [Example 427] | 43.1 nM |
| Cc1cc(Nc2ncnc3cnc(N4CCCO4)nc23)ccc1Oc1ccn2ncnc2c1 [Example 428] | 202 nM |
| FC(F)(F)[C@H]1CN(c2ncc3ncnc(Nc4ccc(Oc5ccn6ncnc6c5)c(Cl)c4)c3n2)CCN1 [Example 429] | 39.6 nM |
| Clc1cc(Nc2ncnc3cnc(N4CCN5CCOC[C@H]5C4)nc23)ccc1Oc1ccn2ncnc2c1 [Example 430] | 25.5 nM |
| Clc1cc(Nc2ncnc3cnc(N4CCN5CCOC[C@@H]5C4)nc23)ccc1Oc1ccn2ncnc2c1 [Example 431] | 63.1 nM |
| Cc1cc(Nc2ncnc3cnc(N4CCC[C@@H]5COC[C@@H]54)nc23)ccc1Oc1ccc2c(c1)ncn2C [Example 432] | 71.1 nM |
| O=S1(=O)CC[C@@H]2CN(c3ncc4ncnc(Nc5ccc(Oc6ccn7ncnc7c6)c(Cl)c5)c4n3)C[C@@H]21 [Example 433] | 67.4 nM |

Source: US11834453B2, “Substituted pyrimido[5,4-d]pyrimidines as HER2 inhibitors” (Array BioPharma Inc., priority 2020, dated 2023)
